Results on 1 compound are retold here after US5560923A (Georgetown University, priority 1994, dated 1996).

The nature of data set [1]: Complex formation of drug with cardiolipin-containing liposomes (centrifugation, spectrophotometry of supernatant). The format is physicochemical. The settings on record: same conditions as doxorubicin, mixed with cardiolipin-containing liposomes. The procedure: Formation of the complex liposome-doxorubicin was evaluated relative to the time of the incubation at 25° C. following the mixing of both components (FIG. 1).
Association capacity of doxorubicin to cardiolipin-liposomes was evaluated for different concentrations of mixture of both components mixed in the same volume (5 ml) after an incubation of 15 min. at 37° C. at a fixed liposome/doxorubicin weight ratio of 11 (Table 1).

Data set [2] deals with LZ cells. Put plainly: Clonogenic assay, cytotoxicity / multidrug resistance reversal in LZ cells. As to conditions: mixed with cardiolipin-containing liposomes. On the procedure: Percent survival of treated cells was determined relative to untreated control.

For the compound `CC[C@]1(O)C[C@H]2CN(CCc3c([nH]c4ccccc34)[C@@](C(=O)OC)(c3cc4c(cc3OC)N(C=O)[C@H]3[C@@](O)(C(=O)OC)[C@H](OC(C)=O)[C@]5(CC)C=CCN6CC[C@]43[C@@H]65)C2)C1` [vincristine], the “association between drug and liposome (in words)” value in data set [1] was “no association between drug and liposome was formed”. Moreover, the “increase in drug cytotoxicity (in words)” value in data set [2] is given as “no increase in drug cytotoxicity was observed”.
